From patent US11471460B2, “Autophagy modulators for use in treating cancer” (The United States of America,as represented by the …, priority 2017, dated 2022)

What was measured:
[1] = test system: LC3-II and p62 in U2OS cells; test: Accumulation of autophagosome markers LC3-II and p62, Western immuno-blotting; assay type: cell-based, human
Description: Cells were cultured for 4 hrs before total cell extracts were subjected to Western immuno-blotting for LC3, p62 and β-actin. Blot was developed with film. […] (C) U2OS cells were cultured for the times indicated in the presence of 1.2 μM compound 1 to produce 80% of the maximum observed in FIG. 10A. Total cell extracts were assayed at the times indicated. […] All blots were stained with Ponceau S […].
Total cell lysates were prepared (in 4× dye). Proteins were fractionated at 200V in a NuPAGE 4-12% bis-tris polyacrylamide gel (NP0323, Novex) using NuPAGE MES running buffer (NP0002, Novex) and then stained with PageBlue (24260, Thermo Scientific) in order to quantify the relative amount of histones in each sample. […] Proteins were wet-transferred onto nitrocellulose membranes (162-0112, Bio-Rad) using NuPAGE transfer buffer (NP-0006-1, Novex) for 1 hour at 30V. Membranes were then stained with dilute Ponceau S solution, blocked in 5% milk for 30 minutes at room temperature, and incubated overnight at 4° C. in primary antibody. Membranes were washed with phosphate buffered saline with tween 20 (PBST) three times for 10 min. each, incubated with secondary antibodies in 5% milk for 1 hour, washed three times with PBST again, covered in ECL (SuperSignal West Pico chemiluminescent substrate, 34080, Thermo Scientific) and exposed to film (HyBlot ES, E3218, Denville Scientific).

U2OS cells = test: GFP-LC3 / LAMP1-RFP co-localization (autolysosome formation); assay type: cell-based, human; details: compound 1 or rapamycin and compound 1, 4 hours
Description: Confocal microscopic images are shown in FIG. 13A of U2OS cells that were co-transfected with a GFP-LC3B expression vector to label autophagosomes green and a LAMP1-RFP expression vector to label lysosomes red. Cells were then treated for 4 hrs with 1 μM rapamycin to induce autophagy, or with 1 μM compound 1 to disrupt autophagy, or with both 1 μM rapamycin and 1 μM compound 1. Cells were then fixed and viewed by confocal microscopy. Nuclei were stained with DAPI. […] The mean±SEM results from 50 cells is given for two independent experiments.
To determine whether or not the absence of an acidic environment resulted from failure of lysosomes to fuse with autophagosomes, cells were transfected with both GFP-LC3 and LAMP1-RFP expression vectors, and then cultured for 4 hours in the presence of vehicle, rapamycin, or both rapamycin and compound 1 (FIG. 13). Rapamycin is an established inducer of autophagy (42, 43). As expected, rapamycin induced accumulation of GFP-LC3 labeled autophagosomes (green), some of which were autolysosomes, as shown by co-localization with LAMP1-RFP on control cells. In contrast, GFP-LC3 and LAMP1-RFP labeled different populations of vesicles in cells cultured with either compound 1 or rapamycin and compound 1, despite the fact that the density of autophagosomes was at least 3-fold greater.

468 human kinases = test: DiscoverX KINOMEscan profile at 10 μM; assay type: binding; details: panel of 468 human kinases
Description: Each kinase was tagged with a unique DNA sequence that allowed the amount of protein bound to the solid support to be quantified by PCR. The top three targets for compound 1 were PIKFYVE, PIP4K2C and MTOR. […] Dissociation constants (Kd) were determined from the amount of kinase captured on the solid support as a function of the test compound concentration (nM) on a log10 scale. Mean Kd values (±range) are given for each compound. The ratio of PIP4K2C to PIKFYVE indicates the relative specificity for these two kinases.
To address this hypothesis, a panel of 468 human kinases were screened for their ability to bind compound 1. […] The top two candidates were PIKFYVE (phosphoinositide kinase FYVE-type zinc finger containing) and PIP4K2C (phosphatidylinositol-5-phosphate 4-kinase). PIKFYVE is a kinase that is essential for mouse development (49) and that prevents endosome enlargement and cytoplasmic vacuolization (50, 51). PIP4K2C is a kinase that is not essential for mouse growth and viability, but it is essential for the immune system (52), mTORC1 signaling (53), and regulation of autophagy (54). The third candidate was MTOR, a kinase that regulates autophagy (55). Therefore, the binding constants (Kd) for all five members of the compound 1-family were determined for each of these three proteins from two independent titration curves, as shown for compound 1.

melanoma A375 tumors = test: Expansion of preformed A375 tumors in inbred nude mice; assay type: in vivo; details: 20 or 40 mg/kg intraperitoneally each day for 14 days
Description: (A) Melanoma A375 cells were cultured to 80% confluency and then inoculated subcutaneously into both flanks of inbred nude mice. Palpable tumors (˜40-50 mm^3) appeared within 7 days. (B) Either vehicle or 20 or 40 mg of compound 1 per kg of the mouse was injected intraperitoneally each day for a period of 14 days. Compound 1 was dissolved in sunflower seed oil. Tumors were excised on day 21. […] Error bars indicate the SEM for 6 tumors.
To determine whether or not compound 1 could inhibit expansion of a preformed tumor that arose from autophagy-dependent cancer cells, melanoma A375 cells were inoculated into the flanks of immuno-compromised mice and allowed to form a palpable tumor. Mice were then injected intraperitoneally once a day with varying amount of compound 1.

SMILES: C1=Nc2ccccc2/C1=C/NNc1nc(Nc2ccccc2)nc(N2CCOCC2)n1 [compound 1]
- Delay of p62 accumulation relative to LC3-II [1]: about 3 hours
- Sensitivity of inhibition of lysosome fission relative to accumulation of autophagosomes [1]: at least 5 fold
- Concentration required for near maximum levels of LC3-II accumulation ([1]; 4 hrs): 0.1 to 0.5 µM
- Accumulation of LC3-II ([1]; U2OS cells): comparable increase in LC3-II
- Time to accumulation of LC3-II and p62 ([1]; U2OS cells): ≤ 4 h
- Density of autophagosomes relative to rapamycin alone (U2OS cells): at least 3 fold
- Number of kinases with binding affinities of 25% or greater (468 human kinases): ten
- Ill effects on mice (melanoma A375 tumors): no exhibited ill effects
- Expansion of preformed tumors (melanoma A375 tumors; inbred nude mice): inhibited by compound 1 in a dose dependent manner
